Like-named read-outs stand apart in the source and are kept apart here.
Columns and labels:
[1] = target: Recombinant human PKC-delta (His-tagged 345-676) (Homo sapiens (Human), UniProt Q05655); test: PKC-delta inhibition assay (HTRF KinEASE kit), PKC-theta/PKC-delta selectivity; assay type: biochemical; conditions: ratio; for PKC-theta/PKC-delta selectivity: PKC-theta over PKC-delta, HTRF assays; for PKC-theta/PKC-delta selectivity (binned): binned A to G
Method: (§1) PKC-theta and PKC-delta biochemical activities were measured using the PKC-theta HTRF KinEASEkit kit, according to manufacturer's instructions (Cisbio, catalogue number 61ST1PEJ). Briefly, the kinase buffer component of the kit was supplemented with 10 mM MgCl2, 1 mM DTT and 0.1% Tween 20. For the PKC-theta assay, STK substrate and ATP were added to provide a final assay concentration of 525 nM and 6.5 μM, respectively. For the PKC-delta assay, STK substrate and ATP were added to provide a final assay concentration of 243 nM and 5.7 μM, respectively. The streptavidin_XL665 and STK antibody-cryptate detection reagents were mixed according to the manufacturer's instructions. Test compounds were diluted in DMSO in a series of 10 semi-log step doses; 10 nL of each compound dose were dispensed in 384 well plates. Recombinant human PKC-theta (His-tagged 362-706) or PKC-delta (His-tagged 345-676) was diluted into kinase buffer to provide a final assay concentration of 10 ng/ml and added to the test compound for 30 minutes on ice. The reaction was started by addition of the substrate and ATP and incubated at 25° C. for 30 minutes or 20 minutes for the PKC-theta and PKC-delta assays, respectively. The detection reagents were added, and the plate was incubated in the dark for 2 hours. Fluorescence was measured on an Envision 2103 plate reader with optical setup for […] in the HTRF mode. The ratio of acceptor and donor emission signals was calculated for each well. Percent inhibition values were calculated from the HTRF ratios at different doses and fitted to a 4-parameter logistic curve to determine IC50 values (see Table 1).

[2] = target: Recombinant human PKC-theta (His-tagged 362-706) (Homo sapiens (Human), UniProt Q04759); test: PKC-theta inhibition assay (HTRF KinEASE kit); assay type: biochemical; conditions: ATP 6.5 μM
Method: as §1

[3] = test system: IL-2 secretion by human effector memory T cells (TEM); test: Effector memory T cells IL-2 release assay; assay type: cell-based; conditions: T-cell, human CD4+ TEM cells, CD3/CD28 bead stimulation, 24 h
Method: Test compound-mediated inhibition of NFκB signalling in T cells was assessed by quantification of the IL-2 secretion by human effector memory T cells (TEM) upon treatment and stimulation. Human TEM cells were isolated from buffy coats of healthy donors obtained from the French blood bank. First, peripheral blood mononuclear cells (PBMC) were purified from buffy coats diluted 1:1 with DPBS (Gibco, cat #14190-094) by Pancoll (PAN BIOTECH, cat #P04-60500) density gradient centrifugation at 400×g for 20 minutes. TEM cells were further enriched by negative immuno-magnetic cell sorting using a human CD4+ Effector Memory T Cell Isolation Kit (Miltenyi, cat #130-094-125) according to the manufacturer's instructions. Aliquots of 3×10E6 purified TEM cells were kept frozen in Cryo-SFM medium (PromoCell, cat #C-29912) in gas phase nitrogen until used. Cell purity was verified by flow cytometry analysis of 200 000 PFA-fixed cells previously labelled with monoclonal antibodies anti-CD4-PerCP-Cy5.5 (BD Pharmigen, cat #332772), anti-CD8-V500 (BD Biosciences, cat #561617), anti-CD14-Pacific Blue (Biolegend, cat #325616), anti-CD45 RA-FITC (Biolegend, cat #304106) and anti-CCR7-APC (in CD4+ Effector Memory T Cell Isolation Kit, Miltenyi, cat #130-094-125).
TEM cells were resuspended in complete RPMI medium composed of: RPMI 1640 (Gibco, cat #31870-025), 10% heat inactivated fetal bovine serum (Sigma, cat #F7524), 2 mM GlutaMAX (Gibco, cat #35050-038), 1 mM sodium pyruvate 100× (Gibco, cat #11360-039), 1% MEM non-essential amino acids solution (Gibco, cat #11140-035) and 100 U/mL penicillin, 100 µg/mL streptomycin (Sigma-Aldrich, cat #11074440001). 5,000 cells per well were plated onto flat clear bottom 384 well plates (Corning, cat #3770). 5,000 Dynabeads Human T-Activator CD3/CD28 (Gibco, cat #11132D) were added to each well for cell stimulation. Finally, 10 doses of test compound, originally prepared in DMSO by serial semi-log step dilution, were also added to cells in triplicate wells. Final DMSO concentration in wells was 0.1% in a total volume of 100 µL complete medium. Plates were incubated for 24 h at 37° C. in 5% CO2 atmosphere. After incubation, cell suspensions were centrifuged at 400×g and culture supernatants were recovered and stored at −80° C. Cell viability was assessed by flow cytometry after staining the cells with Fixable Viability Dye eFluor 780 (Invitrogen, cat #65-0865-14). IL-2 levels were determined in cell supernatants using an HTRF human IL-2 detection kit (Cisbio, cat #62HIL02PEH). IL-2 data at the different compound doses were fitted to a 4-parameter logistic curve to determine IC50 values, corresponding to the compound concentration leading to 50% reduction of the maximal IL-2 levels observed in each experiment. Viability data were analysed similarly to exclude cytotoxicity as a cause of IL-2 decrease (see Table 1).

[4] = binned A to H, read-out: PKC-theta HTRF pIC50 (binned) (converted)
[5] = read-out: PKC-theta HTRF pIC50 (converted)
[6] = binned A to G, read-out: PKC-theta IL2 pIC50 (binned) (converted)
[7] = read-out: PKC-theta IL2 pIC50 (converted)

Chain of Recombinant human PKC-theta (His-tagged 362-706) (Q04759 362-706): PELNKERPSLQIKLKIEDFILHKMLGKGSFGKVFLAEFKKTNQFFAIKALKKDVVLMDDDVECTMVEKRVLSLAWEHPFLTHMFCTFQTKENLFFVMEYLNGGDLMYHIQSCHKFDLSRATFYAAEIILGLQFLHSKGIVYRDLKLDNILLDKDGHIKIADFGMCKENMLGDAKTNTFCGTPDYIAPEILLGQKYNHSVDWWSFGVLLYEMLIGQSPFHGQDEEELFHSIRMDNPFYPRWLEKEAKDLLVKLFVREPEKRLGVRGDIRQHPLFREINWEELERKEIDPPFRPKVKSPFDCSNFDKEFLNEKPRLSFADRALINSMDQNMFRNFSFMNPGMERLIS
Chain of Recombinant human PKC-delta (His-tagged 345-676) (Q05655 345-676): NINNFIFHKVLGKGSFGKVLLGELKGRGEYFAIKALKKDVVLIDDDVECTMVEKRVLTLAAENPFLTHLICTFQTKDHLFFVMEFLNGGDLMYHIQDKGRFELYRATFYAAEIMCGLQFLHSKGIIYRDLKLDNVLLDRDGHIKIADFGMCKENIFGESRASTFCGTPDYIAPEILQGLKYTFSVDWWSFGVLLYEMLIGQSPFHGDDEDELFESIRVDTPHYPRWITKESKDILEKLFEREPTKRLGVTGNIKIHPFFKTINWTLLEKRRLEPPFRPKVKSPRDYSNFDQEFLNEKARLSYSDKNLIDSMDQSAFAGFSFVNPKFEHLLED

| SMILES | PKC-theta/PKC-delta selectivity [1] | PKC-theta/PKC-delta selectivity (binned) [1] | IC50 [2, 4] | IC50 [2, 5] | IC50 [3, 6] | IC50 [3, 7] |
| --- | --- | --- | --- | --- | --- | --- |
| CC[C@@]1(C)C(=O)Nc2nccc(-c3nn([C@H]4CCNC4)c4ccccc34)c21 (single isomer, unassigned) [Example 66] | 21 | C (C means a ratio of between 20 and 30) | 3.16 to 10 nM | 3.98 nM | 31.6 to 100 nM | 100 nM |
| CC[C@@]1(O)C(=O)Nc2nccc(-c3nn(C4(CC#N)CCC4)c4ccccc34)c21 (single isomer, unassigned) [Example 68] | 12 | D (D means a ratio of between 10 and 20) | ≤ 1 nM | 0.251 nM | 10 to 31.6 nM | 10 nM |
| CC[C@]1(O)C(=O)Nc2nccc(-c3nn(C4(CC#N)CCC4)c4ccccc34)c21 (single isomer, unassigned) [Example 69] | 9 | E (E means a ratio of between 5 and 10) | 31.6 to 100 nM | 100 nM | > 1000 nM | 1260 nM |
| CO[C@]1(C)C(=O)Nc2nccc(-c3nn(CC4(F)CCNCC4)c4ccccc34)c21 (single isomer, unassigned) [Example 75] | 19 | D (D means a ratio of between 10 and 20) | 1 to 3.16 nM | 2 nM | 31.6 to 100 nM | 50.1 nM |
| CO[C@]1(C)C(=O)Nc2nccc(-c3nn(CC4(F)CCNCC4)c4cc(F)ccc34)c21 (single isomer, unassigned) [Example 76] | 22 | C (C means a ratio of between 20 and 30) | 1 to 3.16 nM | 3.16 nM | 31.6 to 100 nM | 100 nM |
| CO[C@@]1(C)C(=O)Nc2nccc(-c3nn(CC4(F)CCNCC4)c4ccccc34)c21 (single isomer, unassigned) [Example 78] | 10 | D (D means a ratio of between 10 and 20) | ≤ 1 nM | 1 nM | 31.6 to 100 nM | 50.1 nM |
| CO[C@@]1(C)C(=O)Nc2nccc(-c3nn(CC4(F)CCNCC4)c4cc(F)ccc34)c21 (single isomer, unassigned) [Example 79] | 15 | D (D means a ratio of between 10 and 20) | 1 to 3.16 nM | 1.26 nM | 31.6 to 100 nM | 50.1 nM |
| CO[C@@]1(C)C(=O)Nc2nccc(-c3nn(C4(CC#N)CCC4)c4ccccc34)c21 (single isomer, unassigned) [Example 80] | 9 | E (E means a ratio of between 5 and 10) | ≤ 1 nM | 0.794 nM | 10 to 31.6 nM | 20 nM |
| CO[C@]1(C)C(=O)Nc2nccc(-c3nn(C4(CC#N)CCC4)c4ccccc34)c21 (single isomer, unassigned) [Example 81] | 20 | C (C means a ratio of between 20 and 30) | 31.6 to 100 nM | 31.6 nM | 316 to 1000 nM | 794 nM |

Source: patent US20240239794A1, “PKC-Theta Modulators” (Exscientia AI Limited, priority 2021, published 2024)
